The values that follow come from the METLIN SMRT retention time set (Domingo-Almenara et al. 2019).

This data set can be described thus: gradient 5% acetonitrile 3 min, to 50% in 2 min, to 85% in 15 min, held 3 min, 100 µL/min. As to conditions: column: Zorbax Extend-C18 2.1 x 50 mm; eluents: water / acetonitrile, 0.1% formic acid. The essentials:
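Standards, all pure, were combined into mixtures of ~100 molecules and run at 100 μL/min on a Zorbax Extend-C18 column (2.1 × 50 mm, 1.8 μm) with water and acetonitrile, each containing 0.1% formic acid. A coupled quadrupole time-of-flight mass spectrometer operated in positive and negative ionization mode. Retention time values come from computationally picked adduct peaks, each inspected manually.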
In turn, `COc1cccc2cc(C(=O)N3CCN(CCn4cccn4)CC3)oc12` gave an RP-LC retention time of 571 s.
Consider `COc1cc(OC)cc(-c2noc(CCn3nc(-c4cccc(Cl)c4)ccc3=O)n2)c1`, for which the RP-LC retention time is 1040 s.
On to `CCCNC(=O)CCc1nc2ccccc2n(CC(=O)Nc2ccc(OC)c(OC)c2)c1=O`, for which the RP-LC retention time was 1110 s.
Under `COc1ccc(-n2c(=O)n(C)c(=O)c3cc(C(=O)Nc4ccc(F)c(C)c4)cnc32)cc1` stands 955 s; under `CCN1C(=O)c2cccnc2Sc2cc(CNC(=O)c3cccc(C#N)c3)ccc21`, 756 s.
To `CCOC(=O)N1CCc2c(sc(NC(=O)c3cn(C)nc3OC)c2C#N)C1` belongs 776 s; to `CCOc1ccc(NC(=O)c2cccc(N3CCNC(c4ccccc4)C3)n2)cc1` (stereo not drawn), 700 s.
Under `Cc1cc(=O)n(CC(=O)Nc2cccc(F)c2)c(N2CCOCC2)n1` stands 666 s; under `CC(=O)N(C1CCOCC1)C1CCN(S(=O)(=O)c2ccccc2)CC1`, 712 s.
Compound `O=C(NCc1ccc(Cl)cc1)c1ccc2c(c1)N(CC(=O)N1CCCC1)C(=O)CO2` came in with an RP-LC retention time of 768 s.
`CCN(CC)c1ccc(NC(=O)C2CCCN(C(=O)c3cc(C)cc(C)c3)C2)c(C)c1` (stereo not drawn): the RP-LC retention time came out at 659 s.
Take `Cc1ccccc1NC(=O)CSc1nnc2c3cc(-c4ccc(F)cc4)nn3ccn12`: the RP-LC retention time came out at 897 s.
To `CC(=O)N1CCc2ccccc2C1C(=O)NCc1cccc(C(F)(F)F)c1` (stereo not drawn) belongs 838 s; to `Cc1cccc(CNC(=O)C2(C)Cn3cnc(C(=O)NCc4ccc(F)cc4)c3C(=O)N2C2CC2)c1` (stereo not drawn), 798 s; to `Cc1cccc(S(=O)(=O)N2CCC(c3nc(C(=O)N4CCCC4)c(C)o3)CC2)c1`, 902 s.
Compound `Cc1ccc(CNC(=O)Cn2c(N)nc(C)cc2=O)cc1` showed an RP-LC retention time of 595 s.
For `Cn1nc(-c2nnc(-c3ccc(F)cc3)o2)c2c1CCN(C(=O)Nc1ccccc1Cl)C2`, the RP-LC retention time is 892 s.
To `Cc1ccc(C2=NC3(CCN(C(=O)c4ccc5cc[nH]c5c4)CC3)ON2)cc1` belongs 755 s; to `O=S(=O)(c1cccnc1)N1CCCC(Cn2c(C3CC3)nc3cccnc32)C1` (stereo not drawn), 650 s.
To `O=C(c1cccs1)N1CCc2cc(-c3ccno3)ccc21` belongs 887 s; to `COc1ccc(NC(=O)Cn2ccnc2-c2ccnc(N3CCOCC3)c2)c(OC)c1`, 613 s.
Under `Cc1cccc2nnc(N3CCN(C(=O)c4ccc(Br)cc4)CC3)n12` stands 683 s; under `O=C1COc2ccc(S(=O)(=O)N3CCC(C(=O)N4CCOCC4)CC3)cc2N1`, 620 s.
For `Cc1noc(-c2cccc(OC3CN(C(=O)NC4CCCCC4)C3)c2)n1`, the RP-LC retention time worked out at 891 s.
Compound `CC(C)c1nc2c(NC(=O)c3ccccc3)cccn2n1` displayed an RP-LC retention time of 860 s.
To `Cc1ccc(C)c(N2CCN(C(=O)Cn3nc(C(=O)N4CCCCC4)c4ccccc43)CC2)c1` belongs 1100 s; to `CS(=O)(=O)N[C@H]1C[C@@H]2C[C@H]1CN2C(=O)c1ccccc1C(F)(F)F`, 705 s; to `Cc1ccc(CN2C(=O)COC[C@H]2C(=O)NC2CC2)cc1`, 658 s.
Under `COCCN1C(=O)Cc2ccccc2C1C(=O)NCc1cc(F)ccc1F` (stereo not drawn) stands 738 s; under `Cc1cc(C)n(CCC(=O)N2CC[C@@H]3CN(S(C)(=O)=O)[C@@H]3C2)n1`, 594 s.
Consider `Cc1noc(CN2CCN(C3CCN(Cc4cc(Cl)ccc4F)C3)C2=O)n1` (stereo not drawn), for which the RP-LC retention time stood at 713 s.
Turning to `CCc1ccccc1NC(=O)Cn1c(=O)n(-c2ccc(C)cc2)c(=O)c2c1cc(C)n2C`, the RP-LC retention time came out at 892 s.
To `CCN1CCN(S(=O)(=O)c2ccc(Cl)c(-c3nnc(-c4ccc(OC)cc4)o3)c2)CC1` belongs 677 s.
`O=C(Nc1ccc2c(c1)OCCO2)c1ccc(-n2cc(CNC(=O)C3CC3)cn2)cc1` showed an RP-LC retention time of 720 s.
To `COc1ccccc1-c1nnc(-c2ccc(C)c(S(=O)(=O)N3CCCCCC3)c2)o1` belongs 1100 s; to `COCc1noc(CC2CCOC3(CCN(C(=O)NC4CCCCC4)CC3)C2)n1` (stereo not drawn), 758 s.
`CC(C)n1c(=O)oc2cc(-c3noc(-c4ccc(Br)cc4)n3)ccc21` had an RP-LC retention time of 1350 s.
Compound `Cc1ccn(-c2ccc(C(=O)NC3CCCCC3)cn2)n1` had an RP-LC retention time of 885 s.
Under `COCCCNC(=O)C1CCCN(C(=O)c2cc(C)cc(C)c2)C1` (stereo not drawn) stands 700 s; under `CCCNC(=O)CCC1CCN(c2cc(NC3CC3)ncn2)CC1`, 600 s.
To `O=C(CCCN1C(=O)c2cccc3cccc(c23)C1=O)Nc1cccnc1` belongs 571 s; to `C[C@H](Nc1ncnc2nc[nH]c12)c1cc2cccc(Cl)c2c(=O)n1-c1ccccc1`, 697 s; to `COc1cc(-c2noc(Cn3ccnc3)n2)cc(OC)c1OC`, 604 s.
In turn, `Cc1cc(C)cc(NC(=O)C2CC(=O)N(c3ccc4oc(C)nc4c3)C2)c1` (stereo not drawn) displayed an RP-LC retention time of 801 s.
Under `COc1ccc(C(=O)CC2(O)C(=O)Nc3c(C)cccc32)cc1OC` (stereo not drawn) stands 688 s; under `CCC(C(=O)Nc1c(-c2ccccc2)nc2cc(C)ccn12)c1ccccc1` (stereo not drawn), 939 s.
Take `COc1ccc(S(=O)(=O)N2CCC(CN3CCC(C)CC3)CC2)cc1Cl`: the RP-LC retention time was 692 s.
Under `O=C(NCC1CCN(c2ncccn2)CC1)Nc1ccc2c(c1)OCO2` stands 632 s; under `O=C(NCCCN1CCc2ccccc2C1)c1sc2ncccc2c1-n1cccc1`, 679 s; under `CCOc1ccc(-n2c(-c3ccc(Cl)cc3)cn3c4c(=O)n(C)c(=O)n(C)c4nc23)cc1`, 1050 s.
On to `CC(C)N1C(=O)c2cccnc2Sc2cc(NC(=O)c3ccc(Cl)cc3)ccc21`, for which the RP-LC retention time came to 964 s.
Under `CCc1ccc(N2C(=O)CN(S(=O)(=O)CC)CC2(C)C(=O)NCc2ccccc2)cc1` (stereo not drawn) stands 868 s; under `COc1ccc(CNC2=NCCNC23CCN(S(=O)(=O)c2ccc(C(C)C)cc2)CC3)cc1`, 814 s.
The compound `CN(C)c1cc(C(=O)NCc2ccncc2)nc2ccnn12` returned an RP-LC retention time of 581 s.
To `CCOc1ccc(C(=O)Nc2ccc3c(c2)Sc2ncccc2C(=O)N3C(C)C)cc1` belongs 972 s; to `CN1C(=O)c2cc(S(=O)(=O)Nc3ccc4c(c3)OCCO4)ccc2Oc2cccnc21`, 826 s.
To `O=C(NCCc1ccccc1)c1cc2sccc2n1Cc1ccc(Cl)cc1` belongs 1210 s; to `CNC(=O)c1noc([C@@H]2CC(F)(F)CN2CC2CC2)n1`, 724 s; to `COC(=O)c1sc2ccccc2c1NC(=O)c1ccc(S(=O)(=O)N2CCCC2)cc1`, 946 s.
For the compound `COc1cc(NC(=O)CN2CCc3[nH]c4c(C)ccc(F)c4c(=O)c3C2)cc(OC)c1`, the RP-LC retention time is 604 s.
In the case of `Cc1cc(S(=O)(=O)N2C[C@@H](F)C[C@H]2C(=O)N2CCc3ccccc3C2)ccc1Cl`, the RP-LC retention time is 1020 s.
The compound `CCc1ccccc1NC(=O)c1c(O)c2cccnc2n(-c2ccccc2)c1=O` yielded an RP-LC retention time of 1290 s.
Under `COc1cc(OC)cc(-c2nc(-c3ccc4c(c3)oc(=O)n4C)no2)c1` stands 1060 s.
Under `O=c1n(Cc2cccc(Cl)c2)nc2c(S(=O)(=O)N3CCOCC3)cccn12` stands 1320 s; under `Cn1cnnc1SCCNC(=O)Cc1noc2ccccc12`, 591 s; under `Cc1c(CC(=O)N2CCC(C(N)=O)CC2)c(=O)oc2cc3oc4c(c3cc12)CCCC4`, 764 s.
In the case of `O=C(NC1CCN(c2cc(-c3cccs3)[nH]n2)C1)c1cccnc1` (stereo not drawn), the RP-LC retention time is 618 s.
`CC(C)N1C(=O)c2cccnc2Sc2cc(NC(=O)c3ccccc3Cl)ccc21` yielded an RP-LC retention time of 871 s.
Under `CCOc1ccc2sc(NS(=O)(=O)c3ccc(N)cc3)nc2c1` stands 797 s.
`CN(C)c1ccc(-c2nc3ncccn3c2Nc2ccccc2)cc1` showed an RP-LC retention time of 687 s.
In the case of `Cc1cccc(N2CCN(c3ccc4cc(S(=O)(=O)N5CCCC5)ccc4n3)CC2C)c1` (stereo not drawn), the RP-LC retention time stood at 962 s.
For the compound `COc1cccc(-n2ccn3cc(-c4ccc(F)cc4)nc3c2=O)c1`, the RP-LC retention time is 821 s.
The compound `COCCCN(CC(=O)N1CCc2sccc2C1COc1ccc(F)cc1)C(C)=O` (stereo not drawn) registered an RP-LC retention time of 802 s.
To `CCCN1C(=O)C2(NCCc3c2[nH]c2ccc(OC)cc32)c2cc(Br)ccc21` (stereo not drawn) belongs 729 s; to `Cc1ccc2c(=O)c3c([nH]c2c1C)CCN(CC(=O)Nc1ccccc1F)C3`, 612 s; to `CC(C)CCn1c(CCCC(=O)N2CCC(C(N)=O)CC2)nc2cccnc21`, 598 s.
`Cc1cccc(NC(=O)CN2C(=O)CC(C)S(=O)(=O)c3ccccc32)c1` (stereo not drawn) registered an RP-LC retention time of 768 s.
To `CC(=O)c1sc(NC(=O)c2ccn(C)n2)nc1C` belongs 630 s.
